Data as given in patent publication US12559529B2, “NPY2 receptor agonists” (Boehringer Ingelheim International GmbH, priority 2019, dated 2026).

How the values were obtained:
[1] = target: T1, Human Neuropeptide Y2 Receptor (Homo sapiens, UniProt P49146); test: Radioligand binding competition assay (RLB); conditions: Table 3; human 125I-PYY (1-36) 0.02 nM, Y2 receptor membranes; read-out: Ki
T1 construct: purchased CHEMICON HTS066M
T1 sequence (P49146 1-381): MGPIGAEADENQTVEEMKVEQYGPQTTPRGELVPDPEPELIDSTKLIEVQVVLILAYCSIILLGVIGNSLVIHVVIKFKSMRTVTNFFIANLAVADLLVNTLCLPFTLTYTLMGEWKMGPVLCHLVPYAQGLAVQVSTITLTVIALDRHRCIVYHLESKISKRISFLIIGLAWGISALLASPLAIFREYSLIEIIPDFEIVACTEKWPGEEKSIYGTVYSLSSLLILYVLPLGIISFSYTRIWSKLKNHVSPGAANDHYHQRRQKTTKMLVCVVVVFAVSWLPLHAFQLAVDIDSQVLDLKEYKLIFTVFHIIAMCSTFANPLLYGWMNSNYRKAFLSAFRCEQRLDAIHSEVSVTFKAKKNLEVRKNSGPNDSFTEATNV
Procedure, shortened: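 Filtration format; Y2R membrane prep 0.5 μg/well; buffer 50 mM HEPES/5 mM MgCl2/1 mM CaCl2/0.2% ovalbumin pH 7.4; 2 h RT, shaking. Harvest on PEI-soaked GF/C, ice-cold HEPES/500 mM NaCl washes, scintillation count. IC50 by nonlinear fit.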

normal NMRI mice = test: Effect on acute food intake in normal NMRI mice; format: in vivo; conditions: male NMRI mice, 10 nmol/kg subcutaneously once
Procedure, shortened: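 Male NMRI mice acclimatized in an HM-2 real-time food intake monitoring system, fasted 6 h before dark phase. Single subcutaneous dose of 10 nmol/kg peptide given 1 h before dark; n=7-8. Food intake expressed as % of vehicle group (50 mM phosphate pH7, 5% Mannitol).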

SMILES | Ki [1] [nM] | Acute Food Intake 24 h [% vehicle] (normal NMRI mice)
CC(C)CC(=O)N[C@@H](C)C(=O)N1CCC[C@H]1C(=O)N[C@@H](CCC(=O)O)C(=O)N[C@@H](CCCCNC(=O)COCCOCCNC(=O)COCCOCCNC(=O)CC[C@H](NC(=O)CCCCCCCCCCCCCCCCC(=O)O)C(=O)O)C(=O)N1CCC[C@H]1C(=O)N[C@@H](CCC(=O)O)C(=O)N[C@@H](CCC(=O)O)C(=O)N[C@@H](CC(=O)O)C(=O)N[C@@H](C)C(=O)N[C@@H](CO)C(=O)N1CCC[C@H]1C(=O)N[C@@H](CCC(=O)O)C(=O)N[C@@H](CCC(=O)O)C(=O)N[C@@H](CC(C)C)C(=O)N[C@@H](CCC(N)=O)C(=O)N[C@@H](CCCNC(=N)N)C(=O)N[C@@H](Cc1ccc(O)cc1)C(=O)N[C@@H](Cc1ccc(O)cc1)C(=O)N[C@H](C(=O)N[C@@H](CCC(=O)O)C(=O)N[C@@H](CC(C)C)C(=O)N[C@@H](CCCNC(=N)N)C(=O)N[C@@H](Cc1c[nH]cn1)C(=O)N[C@@H](Cc1ccc(O)cc1)C(=O)N[C@@H](Cc1ccc(O)cc1)C(=O)N[C@@H](CC(N)=O)C(=O)N[C@@H](Cc1c[nH]c2ccccc12)C(=O)N[C@@H](CC(C)C)C(=O)N[C@H](C(=O)N[C@@H](CCCNC(=N)N)C(=O)N[C@@H](CCC(N)=O)C(=O)N[C@@H](CCCNC(=N)N)C(=O)N[C@@H](Cc1ccc(O)cc1)C(N)=O)[C@@H](C)O)C(C)C [Compound 108, N{alpha-4}-(3-methylbutanoyl)-N{epsilon-7}-[2-(2-{2-[2-(2-{2-[(4S)-4-carboxy-4-(17-carboxyheptadecanamido)butanamido]ethoxy}ethoxy)acetamido]ethoxy}ethoxy)acetamido]-[4A,7K,9E,18Q,22V,23E,28Y,30W,31L]hPYY (4-36)] | 0.99 | 47
CC[C@H](C)[C@H](NC(=O)[C@H](CCC(=O)O)NC(=O)[C@H](CCC(=O)O)NC(=O)[C@@H]1CCCN1C(=O)[C@H](CCC(=O)O)NC(=O)[C@H](C)NC(=O)[C@H](CC(=O)O)NC(=O)[C@H](CCC(=O)O)NC(=O)[C@H](CCC(=O)O)NC(=O)[C@@H]1CCCN1C(=O)[C@H](CCCCNC(=O)COCCOCCNC(=O)COCCOCCNC(=O)CC[C@H](NC(=O)CCCCCCCCCCCCCCCCC(=O)O)C(=O)O)NC(=O)[C@H](CCC(=O)O)NC(=O)[C@@H]1CCCN1C(=O)[C@H](C)NC(=O)CC(C)C)C(=O)N[C@@H](CCC(N)=O)C(=O)N[C@@H](CCCNC(=N)N)C(=O)N[C@@H](Cc1ccc(O)cc1)C(=O)N[C@@H](Cc1ccc(O)cc1)C(=O)N[C@H](C(=O)N[C@@H](CO)C(=O)N[C@@H](CC(C)C)C(=O)N[C@@H](CCCNC(=N)N)C(=O)N[C@@H](Cc1c[nH]cn1)C(=O)N[C@@H](Cc1ccc(O)cc1)C(=O)N[C@@H](Cc1ccc(O)cc1)C(=O)N[C@@H](CC(N)=O)C(=O)N[C@@H](Cc1c[nH]c2ccccc12)C(=O)N[C@@H](CC(C)C)C(=O)N[C@H](C(=O)N[C@@H](CCCNC(=N)N)C(=O)N[C@@H](CCC(N)=O)C(=O)N[C@@H](CCCNC(=N)N)C(=O)N[C@@H](Cc1ccc(O)cc1)C(N)=O)[C@@H](C)O)C(C)C [Compound 110, N{alpha-4}-(3-methylbutanoyl)-N{epsilon-7}-[2-(2-{2-[2-(2-{2-[(4S)-4-carboxy-4-(17-carboxyheptadecanamido)butanamido]ethoxy}ethoxy)acetamido]ethoxy}ethoxy)acetamido]-[4A,7K,9E,13E,17I,18Q,22V,28Y,30W,31L]hPYY (4-36)] | 0.77 | 67
CC(C)CC(=O)N[C@@H](C)C(=O)N1CCC[C@H]1C(=O)N[C@@H](CCC(=O)O)C(=O)N[C@@H](CCCCNC(=O)COCCOCCNC(=O)COCCOCCNC(=O)CC[C@H](NC(=O)CCCCCCCCCCCCCCCCC(=O)O)C(=O)O)C(=O)N1CCC[C@H]1C(=O)N[C@@H](CCC(=O)O)C(=O)N[C@@H](CCC(=O)O)C(=O)N[C@@H](CCC(=O)O)C(=O)N[C@@H](C)C(=O)N[C@@H](CO)C(=O)N1CCC[C@H]1C(=O)N[C@@H](CCC(=O)O)C(=O)N[C@@H](C)C(=O)N[C@@H](CC(C)C)C(=O)N[C@@H](CCC(N)=O)C(=O)N[C@@H](CCCNC(=N)N)C(=O)N[C@@H](Cc1ccc(O)cc1)C(=O)N[C@@H](Cc1ccc(O)cc1)C(=O)N[C@H](C(=O)N[C@@H](CO)C(=O)N[C@@H](CC(C)C)C(=O)N[C@@H](CCCNC(=N)N)C(=O)N[C@@H](Cc1c[nH]cn1)C(=O)N[C@@H](Cc1ccc(O)cc1)C(=O)N[C@@H](Cc1ccc(O)cc1)C(=O)N[C@@H](CC(N)=O)C(=O)N[C@@H](Cc1c[nH]c2ccccc12)C(=O)N[C@@H](CC(C)C)C(=O)N[C@H](C(=O)N[C@@H](CCCNC(=N)N)C(=O)N[C@@H](CCC(N)=O)C(=O)N[C@@H](CCCNC(=N)N)C(=O)N[C@@H](Cc1ccc(O)cc1)C(N)=O)[C@@H](C)O)C(C)C [Compound 115, N{alpha-4}-(3-methylbutanoyl)-N{epsilon-7}-[2-(2-{2-[2-(2-{2-[(4S)-4-carboxy-4-(17-carboxyheptadecanamido)butanamido]ethoxy}ethoxy)acetamido]ethoxy}ethoxy)acetamido]-[4A,7K,9E,11E,16A,18Q,22V,28Y,30W,31L]hPYY (4-36)] | 1.94 | 49
CC[C@H](C)[C@H](NC(=O)[C@H](CCC(=O)O)NC(=O)[C@H](CCC(=O)O)NC(=O)[C@@H]1CCCN1C(=O)[C@H](C)NC(=O)[C@H](C)NC(=O)[C@H](CC(=O)O)NC(=O)[C@H](CCC(=O)O)NC(=O)[C@H](CCC(=O)O)NC(=O)[C@@H]1CCCN1C(=O)[C@H](CCCCNC(=O)COCCOCCNC(=O)COCCOCCNC(=O)CC[C@H](NC(=O)CCCCCCCCCCCCCCCCC(=O)O)C(=O)O)NC(=O)[C@H](CCC(=O)O)NC(=O)[C@@H]1CCCN1C(=O)[C@H](C)NC(=O)CC(C)C)C(=O)N[C@@H](CCC(N)=O)C(=O)N[C@@H](CCCNC(=N)N)C(=O)N[C@@H](Cc1ccc(O)cc1)C(=O)N[C@@H](Cc1ccc(O)cc1)C(=O)N[C@H](C(=O)N[C@@H](CO)C(=O)N[C@@H](CC(C)C)C(=O)N[C@@H](CCCNC(=N)N)C(=O)N[C@@H](Cc1c[nH]cn1)C(=O)N[C@@H](Cc1ccc(O)cc1)C(=O)N[C@@H](Cc1ccc(O)cc1)C(=O)N[C@@H](CC(N)=O)C(=O)N[C@@H](Cc1c[nH]c2ccccc12)C(=O)N[C@@H](CC(C)C)C(=O)N[C@H](C(=O)N[C@@H](CCCNC(=N)N)C(=O)N[C@@H](CCC(N)=O)C(=O)N[C@@H](CCCNC(=N)N)C(=O)N[C@@H](Cc1ccc(O)cc1)C(N)=O)[C@@H](C)O)C(C)C [Compound 124, N{alpha-4}-(3-methylbutanoyl)-N{epsilon-7}-[2-(2-{2-[2-(2-{2-[(4S)-4-carboxy-4-(17-carboxyheptadecanamido)butanamido]ethoxy}ethoxy)acetamido]ethoxy}ethoxy)acetamido]-[4A,7K,9E,13A,17I,18Q,22V,28Y,30W,31L]hPYY (4-36)] | 0.5 | 58
CC(C)CC(=O)N[C@@H](C)C(=O)N1CCC[C@H]1C(=O)N[C@@H](CCC(=O)O)C(=O)N[C@@H](CCCCNC(=O)COCCOCCNC(=O)COCCOCCNC(=O)CC[C@H](NC(=O)CCCCCCCCCCCCCCCCC(=O)O)C(=O)O)C(=O)N1CCC[C@H]1C(=O)N[C@@H](CCC(=O)O)C(=O)N[C@@H](CCC(=O)O)C(=O)N[C@@H](CC(=O)O)C(=O)N[C@@H](C)C(=O)N[C@@H](CO)C(=O)N1CCC[C@H]1C(=O)N[C@@H](CCC(=O)O)C(=O)N[C@@H](CCC(=O)O)C(=O)N[C@@H](CC(C)C)C(=O)N[C@@H](CCC(N)=O)C(=O)N[C@@H](CCCCN)C(=O)N[C@@H](Cc1ccc(O)cc1)C(=O)N[C@@H](Cc1ccc(O)cc1)C(=O)N[C@H](C(=O)N[C@H](C(=O)N[C@@H](CC(C)C)C(=O)N[C@@H](CCCNC(=N)N)C(=O)N[C@@H](Cc1c[nH]cn1)C(=O)N[C@@H](Cc1ccc(O)cc1)C(=O)N[C@@H](Cc1ccc(O)cc1)C(=O)N[C@@H](CC(N)=O)C(=O)N[C@@H](Cc1c[nH]c2ccccc12)C(=O)N[C@@H](CC(C)C)C(=O)N[C@H](C(=O)N[C@@H](CCCNC(=N)N)C(=O)N[C@@H](CCC(N)=O)C(=O)N[C@@H](CCCNC(=N)N)C(=O)N[C@@H](Cc1ccc(O)cc1)C(N)=O)[C@@H](C)O)[C@@H](C)O)C(C)C [Compound 132, N{alpha-4}-(3-methylbutanoyl)-N{epsilon-7}-[2-(2-{2-[2-(2-{2-[(4S)-4-carboxy-4-(17-carboxyheptadecanamido)butanamido]ethoxy}ethoxy)acetamido]ethoxy}ethoxy)acetamido]-[4A,7K,9E,18Q,19K,22V,23T,28Y,30W,31L]hPYY (4-36)] | 1.18 | 64
